This note sets out measurements from US9139557B2, “Carboxamide compounds and their use as calpain inhibitors” (Abbott GmbH & Co. KG, priority 2006, dated 2015).

What all share (format): biochemical
The target in one experiment is T1, cathepsin S (Homo sapiens, UniProt P25774).
T1 construct: purchased Calbiochem 219343; host or cells: E. coli
The experiment can be described thus: Cathepsin S enzyme inhibition in vitro (kinetic fluorescence assay). To be noted: Ki(cathepsin S)/Ki(calpain) ratio. An outline of the steps: (§1)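 Kinetic fluorescence (ex 390/em 460 nm), RT. Calpain-I: 20 nM erythrocyte-derived, 100 μM Suc-Leu-Tyr-AMC, imidazole/CaCl2, pH 7.3. Cathepsins, pH 6.0 MES/EDTA/cysteine: B 0.25 nM liver, 100 μM Z-Phe-Arg-AMC; L 1 nM liver, 2 μM Z-Phe-Arg-AMC; S 0.5 nM recombinant, 20 μM Z-Val-Val-Arg-AMC. Cheng-Prusoff Ki, mean of 2–4 curves.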

The next experiment concerns the target T2, cathepsin B (Homo sapiens, UniProt P07858).
T2 construct: cathepsin B—isolated from human liver; purchased Calbiochem 219362; host or cells: human liver (tissue isolate)
The experiment is described as follows: Cathepsin B enzyme inhibition in vitro (kinetic fluorescence assay). The note with it: Ki(cathepsin B)/Ki(calpain) ratio. An outline of the steps: as §1

The next experiment has as its target T3, cathepsin K (Homo sapiens, UniProt P43235).
T3 construct: purchased Calbiochem 342001; host or cells: E. coli
T3 sequence (P43235 115-329): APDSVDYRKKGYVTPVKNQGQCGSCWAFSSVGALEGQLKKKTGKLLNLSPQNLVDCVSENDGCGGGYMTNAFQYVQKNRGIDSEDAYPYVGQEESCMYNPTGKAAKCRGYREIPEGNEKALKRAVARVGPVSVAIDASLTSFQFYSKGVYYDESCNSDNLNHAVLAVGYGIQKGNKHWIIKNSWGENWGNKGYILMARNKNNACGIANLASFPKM
The experiment is described as follows: Cathepsin K enzyme inhibition in vitro (kinetic fluorescence assay). To be noted: Ki(cathepsin K)/Ki(calpain) ratio.

For another experiment, the target named is T4, cathepsin L (Homo sapiens, UniProt P07711).
T4 construct: cathepsin L—isolated from human liver; purchased Calbiochem 219402; host or cells: human liver (tissue isolate)
T4 sequence (P07711 114-333): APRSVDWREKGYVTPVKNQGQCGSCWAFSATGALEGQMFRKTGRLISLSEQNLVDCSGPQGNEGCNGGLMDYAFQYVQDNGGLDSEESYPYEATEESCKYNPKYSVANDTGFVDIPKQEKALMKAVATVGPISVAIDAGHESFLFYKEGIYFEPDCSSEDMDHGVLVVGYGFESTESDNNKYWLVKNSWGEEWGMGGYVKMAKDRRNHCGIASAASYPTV
The experiment can be described thus: Cathepsin L enzyme inhibition in vitro (kinetic fluorescence assay). To be noted: Ki(cathepsin L)/Ki(calpain) ratio. An outline of the steps: as §1

T1 sequence (P25774 115-331): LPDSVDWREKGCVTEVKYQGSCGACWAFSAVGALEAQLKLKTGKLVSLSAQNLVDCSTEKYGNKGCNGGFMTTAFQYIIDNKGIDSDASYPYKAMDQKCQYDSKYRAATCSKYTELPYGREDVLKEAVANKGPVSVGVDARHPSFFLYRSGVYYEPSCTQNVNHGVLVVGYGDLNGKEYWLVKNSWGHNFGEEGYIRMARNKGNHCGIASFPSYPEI

With `NC(=O)C(=O)C(Cc1ccccc1)NC(=O)c1cccnc1-n1ccc(-c2cccc3ccccc23)n1` (centres unmarked) [Example 110, N-[3-Amino-2,3-dioxo-1-(phenylmethyl)propyl]-2-(3-naphthalen-1-yl-1H-pyrazol-1-yl)pyridine-3-carboxamide], on cathepsin S, the “Sel cat. S” value is “++ (++ means a Ki(cathepsin S)/Ki(calpain) ratio of ≧100)”. Besides, the “Sel cat. B” value on cathepsin B is “++ (++ means a Ki(cathepsin B)/Ki(calpain) ratio of ≧30)”. In addition, the “Sel cat. K” value at cathepsin K is reported as “++ (++ means a Ki(cathepsin K)/Ki(calpain) ratio of ≧30)”. On cathepsin L, the “Sel cat. L” value is reported as “++ (++ means a Ki(cathepsin L)/Ki(calpain) ratio of ≧50)”.

Turning to `NC(=O)C(=O)C(Cc1ccccc1)NC(=O)c1cccnc1-n1ccc(-c2cccc(C(F)(F)F)c2)n1` (centres unmarked) [Example 83, N-(3-Amino-1-benzyl-2,3-dioxopropyl)-2-{3-[3-(trifluoromethyl)phenyl]-1H-pyrazol-1-yl}nicotinamide], the “Sel cat. S” value at cathepsin S is “++ (++ means a Ki(cathepsin S)/Ki(calpain) ratio of ≧100)”. Moreover, the “Sel cat. B” value on cathepsin B was “+ (+ means 10≦Ki(cathepsin B)/Ki(calpain)<30)”. Moreover, on cathepsin K, the “Sel cat. K” value is “++ (++ means a Ki(cathepsin K)/Ki(calpain) ratio of ≧30)”. Moreover, the “Sel cat. L” value on cathepsin L is given as “++ (++ means a Ki(cathepsin L)/Ki(calpain) ratio of ≧50)”.

`COc1ccc(CC(NC(=O)c2cccnc2-n2ccc(-c3ccc4c(c3)OC(F)(F)O4)n2)C(=O)C(N)=O)cc1` (centres unmarked) [Example 137, N-(3-Amino-1-{[4-(methyloxy)phenyl]methyl}-2,3-dioxopropyl)-2-[3-(2,2-difluoro-1,3-benzodioxol-5-yl)-1H-pyrazol-1-yl]pyridine-3-carboxamide]: the “Sel cat. S” value on cathepsin S is recorded as “++ (++ means a Ki(cathepsin S)/Ki(calpain) ratio of ≧100)”. Besides, the “Sel cat. B” value at cathepsin B is given as “+ (+ means 10≦Ki(cathepsin B)/Ki(calpain)<30)”. On cathepsin K, the “Sel cat. K” value is “+ (+ means 10≦Ki(cathepsin K)/Ki(calpain)<30)”. The “Sel cat. L” value on cathepsin L is on record as “++ (++ means a Ki(cathepsin L)/Ki(calpain) ratio of ≧50)”.

`NC(=O)C(=O)C(Cc1ccccc1)NC(=O)c1cccnc1-n1ccc(-c2ccc3c(c2)OC(F)(F)O3)n1` (centres unmarked) [Example 118, N-[3-Amino-2,3-dioxo-1-(phenylmethyl)propyl]-2-[3-(2,2-difluoro-1,3-benzodioxol-5-yl)-1H-pyrazol-1-yl]pyridine-3-carboxamide]: on cathepsin S, the “Sel cat. S” value is given as “++ (++ means a Ki(cathepsin S)/Ki(calpain) ratio of ≧100)”. In addition, on cathepsin B, the “Sel cat. B” value was “++ (++ means a Ki(cathepsin B)/Ki(calpain) ratio of ≧30)”. Also, the “Sel cat. K” value at cathepsin K is reported as “+ (+ means 10≦Ki(cathepsin K)/Ki(calpain)<30)”. Further, on cathepsin L, the “Sel cat. L” value is listed as “++ (++ means a Ki(cathepsin L)/Ki(calpain) ratio of ≧50)”.

For the compound `COc1ccc(-c2ccn(-c3ncccc3C(=O)NC(Cc3ccccc3)C(=O)C(N)=O)n2)c(OC)c1` (centres unmarked) [Example 117, N-[3-Amino-2,3-dioxo-1-(phenylmethyl)propyl]-2-{3-[2,4-bis(methyloxy)phenyl]-1H-pyrazol-1-yl}pyridine-3-carboxamide], the “Sel cat. S” value on cathepsin S was “++ (++ means a Ki(cathepsin S)/Ki(calpain) ratio of ≧100)”. The “Sel cat. B” value at cathepsin B is “++ (++ means a Ki(cathepsin B)/Ki(calpain) ratio of ≧30)”. Besides, on cathepsin K, the “Sel cat. K” value is “++ (++ means a Ki(cathepsin K)/Ki(calpain) ratio of ≧30)”. The “Sel cat. L” value at cathepsin L is on record as “++ (++ means a Ki(cathepsin L)/Ki(calpain) ratio of ≧50)”.

As to `NC(=O)C(=O)C(Cc1ccccc1)NC(=O)c1cccnc1-n1cc2c(n1)-c1ccccc1CC2` (centres unmarked) [Example 63, N-(3-Amino-1-benzyl-2,3-dioxopropyl)-2-(4,5-dihydro-2H-benzo[g]indazol-2-yl)nicotinamide], the “Sel cat. S” value at cathepsin S is listed as “++ (++ means a Ki(cathepsin S)/Ki(calpain) ratio of ≧100)”. In addition, the “Sel cat. B” value at cathepsin B is recorded as “+ (+ means 10≦Ki(cathepsin B)/Ki(calpain)<30)”. Also, the “Sel cat. K” value at cathepsin K is reported as “+ (+ means 10≦Ki(cathepsin K)/Ki(calpain)<30)”. Further, the “Sel cat. L” value on cathepsin L was “++ (++ means a Ki(cathepsin L)/Ki(calpain) ratio of ≧50)”.

With `NC(=O)C(=O)C(Cc1ccccc1)NC(=O)c1cccnc1-n1ccc(-c2ccc(C(F)(F)F)cc2)n1` (centres unmarked) [Example 60, N-(3-Amino-1-benzyl-2,3-dioxopropyl)-2-{3-[4-(trifluoromethyl)phenyl]-1H-pyrazol-1-yl}nicotinamide], the “Sel cat. S” value at cathepsin S is “+ (+ means 50≦Ki(cathepsin S)/Ki(calpain)<100)”. In addition, the “Sel cat. B” value at cathepsin B was “+ (+ means 10≦Ki(cathepsin B)/Ki(calpain)<30)”. The “Sel cat. K” value on cathepsin K is “+ (+ means 10≦Ki(cathepsin K)/Ki(calpain)<30)”. In addition, the “Sel cat. L” value on cathepsin L is listed as “++ (++ means a Ki(cathepsin L)/Ki(calpain) ratio of ≧50)”.

On to `COc1ccc(CC(NC(=O)c2cccnc2-n2ccc(-c3cccc(F)c3Cl)n2)C(=O)C(N)=O)cc1` (centres unmarked) [Example 157, N-(3-Amino-1-{[4-(methyloxy)phenyl]methyl}-2,3-dioxopropyl)-2-[3-(2-chloro-3-fluorophenyl)-1H-pyrazol-1-yl]pyridine-3-carboxamide], for which the “Sel cat. S” value on cathepsin S is on record as “++ (++ means a Ki(cathepsin S)/Ki(calpain) ratio of ≧100)”. Besides, the “Sel cat. B” value on cathepsin B is given as “++ (++ means a Ki(cathepsin B)/Ki(calpain) ratio of ≧30)”. For the same compound, the “Sel cat. K” value on cathepsin K is recorded as “++ (++ means a Ki(cathepsin K)/Ki(calpain) ratio of ≧30)”. For the same compound, the “Sel cat. L” value at cathepsin L is reported as “++ (++ means a Ki(cathepsin L)/Ki(calpain) ratio of ≧50)”.

As for `COc1ccc2c(c1)OCc1cn(-c3ncccc3C(=O)NC(Cc3ccccc3)C(=O)C(N)=O)nc1-2` (centres unmarked) [Example 142, N-[3-Amino-2,3-dioxo-1-(phenylmethyl)propyl]-2-[7-(methyloxy)chromeno[4,3-c]pyrazol-2(4H)-yl]pyridine-3-carboxamide], the “Sel cat. S” value on cathepsin S is listed as “++ (++ means a Ki(cathepsin S)/Ki(calpain) ratio of ≧100)”. Also, the “Sel cat. B” value on cathepsin B is “+ (+ means 10≦Ki(cathepsin B)/Ki(calpain)<30)”. Further, the “Sel cat. K” value at cathepsin K was “+ (+ means 10≦Ki(cathepsin K)/Ki(calpain)<30)”. Besides, the “Sel cat. L” value at cathepsin L is “++ (++ means a Ki(cathepsin L)/Ki(calpain) ratio of ≧50)”.

For `NC(=O)C(=O)C(Cc1ccc(OC(F)(F)F)cc1)NC(=O)c1cccnc1-n1ccc(-c2cccc(C(F)(F)F)c2)n1` (centres unmarked) [Example 134, N-[3-Amino-2,3-dioxo-1-({4-[(trifluoromethyl)oxy]phenyl}methyl)propyl]-2-{3-[3-(trifluoromethyl)phenyl]-1H-pyrazol-1-yl}pyridine-3-carboxamide], the “Sel cat. S” value on cathepsin S was “+ (+ means 50≦Ki(cathepsin S)/Ki(calpain)<100)”. Also, on cathepsin B, the “Sel cat. B” value is recorded as “++ (++ means a Ki(cathepsin B)/Ki(calpain) ratio of ≧30)”. In addition, the “Sel cat. K” value at cathepsin K is given as “++ (++ means a Ki(cathepsin K)/Ki(calpain) ratio of ≧30)”. The “Sel cat. L” value at cathepsin L is reported as “+ (+ means 30≦Ki(cathepsin L)/Ki(calpain)<50)”.

Turning to `NC(=O)C(=O)C(Cc1ccccc1)NC(=O)c1cccnc1-n1cc2c(n1)-c1ccccc1OC2` (centres unmarked) [Example 100, N-[3-Amino-2,3-dioxo-1-(phenylmethyl)propyl]-2-chromeno[4,3-c]pyrazol-2(4H)-ylpyridine-3-carboxamide], the “Sel cat. S” value at cathepsin S is listed as “++ (++ means a Ki(cathepsin S)/Ki(calpain) ratio of ≧100)”. Further, on cathepsin B, the “Sel cat. B” value is on record as “+ (+ means 10≦Ki(cathepsin B)/Ki(calpain)<30)”. Also, at cathepsin K, the “Sel cat. K” value is given as “++ (++ means a Ki(cathepsin K)/Ki(calpain) ratio of ≧30)”. Besides, the “Sel cat. L” value at cathepsin L is listed as “++ (++ means a Ki(cathepsin L)/Ki(calpain) ratio of ≧50)”.
